The source made the active and inactive calls. The rule behind the calls is not given here.
What was measured:
[1] = molecular target: Cytochrome P450 2D6 (Homo sapiens, UniProt P10635); experiment: Inhibition of CYP2D6 (unknown origin); assay type: ADME
[2] = system: Rattus norvegicus; experiment: Antiinflammatory activity in Lewis rat collagen-induced arthritis model assessed as reduction in ankle inflammation at 0.125 to 2 mg/kg, po administered bid for 16 days; assay type: functional, organism-based
[3] = Oral bioavailability in rat at 1 mg/kg administered as single dose via cassette dosing; assay type: ADME, organism-based; details: in vivo
[4] = system: Rattus norvegicus; experiment: Antiinflammatory activity in Lewis rat collagen-induced arthritis model assessed as reduction in ankle diameter AUC at 0.5 mg/kg, po administered bid for 16 days relative to control; assay type: functional; details: 384 h
[5] = system: Homo sapiens; experiment: Toxicity in human at 250 mg administered bid for 14 days; details: in vivo, 336 h
[6] = system: Salmonella typhimurium; experiment: Genotoxicity in Salmonella typhimurium TA98 after 48 to 72 hrs in absence of liver S9 fraction by Ames test; assay type: toxicity; details: salmonella enterica subsp. enterica serovar typhimurium
[7] = molecular target: T1, JAK3 (Homo sapiens, UniProt P52333); experiment: Inhibition of recombinant human catalytic GST-tagged JAK3 expressed in baculovirus at 1 uM by Z'-LYTE assay
T1 sequence (P52333 whole entry): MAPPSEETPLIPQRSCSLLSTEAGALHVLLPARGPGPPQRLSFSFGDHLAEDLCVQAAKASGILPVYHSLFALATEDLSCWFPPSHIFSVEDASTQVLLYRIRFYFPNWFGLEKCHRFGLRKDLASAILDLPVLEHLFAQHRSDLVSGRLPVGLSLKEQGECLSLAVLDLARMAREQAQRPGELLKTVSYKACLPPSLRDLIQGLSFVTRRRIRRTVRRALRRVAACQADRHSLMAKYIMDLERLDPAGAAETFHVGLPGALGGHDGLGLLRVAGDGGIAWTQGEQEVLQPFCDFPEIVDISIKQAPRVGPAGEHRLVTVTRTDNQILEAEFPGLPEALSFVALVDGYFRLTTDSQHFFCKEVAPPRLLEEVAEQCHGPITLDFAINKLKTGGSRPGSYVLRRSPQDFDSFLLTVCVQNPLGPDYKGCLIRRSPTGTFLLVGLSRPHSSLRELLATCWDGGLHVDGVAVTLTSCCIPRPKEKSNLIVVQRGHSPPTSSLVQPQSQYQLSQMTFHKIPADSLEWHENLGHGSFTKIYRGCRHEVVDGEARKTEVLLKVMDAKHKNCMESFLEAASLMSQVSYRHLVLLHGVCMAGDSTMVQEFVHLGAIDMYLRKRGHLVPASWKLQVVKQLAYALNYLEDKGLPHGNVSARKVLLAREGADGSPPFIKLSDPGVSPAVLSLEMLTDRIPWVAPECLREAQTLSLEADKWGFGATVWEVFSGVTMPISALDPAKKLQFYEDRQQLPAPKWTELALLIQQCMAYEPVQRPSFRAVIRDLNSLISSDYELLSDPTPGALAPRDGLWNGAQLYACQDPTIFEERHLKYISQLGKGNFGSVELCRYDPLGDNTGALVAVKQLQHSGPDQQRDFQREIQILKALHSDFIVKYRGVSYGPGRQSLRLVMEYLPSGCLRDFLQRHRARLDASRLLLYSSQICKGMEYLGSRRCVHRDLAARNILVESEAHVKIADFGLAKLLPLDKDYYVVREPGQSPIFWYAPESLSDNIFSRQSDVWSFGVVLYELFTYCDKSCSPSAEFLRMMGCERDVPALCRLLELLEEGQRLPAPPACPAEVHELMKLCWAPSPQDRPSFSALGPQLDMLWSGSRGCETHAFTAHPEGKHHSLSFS

[8] = system: Homo sapiens; experiment: Toxicity in human at 500 mg administered qd for 14 days; details: in vivo, 336 h
[9] = system: Rattus norvegicus; experiment: Antiinflammatory activity in Lewis rat collagen-induced arthritis model assessed as reduction in bone resorption at 0.125 to 2 mg/kg, po administered bid for 16 days; assay type: functional, organism-based
[10] = molecular target: BLK (Homo sapiens, UniProt P51451); experiment: Inhibition of recombinant human full length His-tagged BLK expressed in baculovirus at 1 uM by Z'-LYTE assay
Chain of BLK (P51451 whole entry): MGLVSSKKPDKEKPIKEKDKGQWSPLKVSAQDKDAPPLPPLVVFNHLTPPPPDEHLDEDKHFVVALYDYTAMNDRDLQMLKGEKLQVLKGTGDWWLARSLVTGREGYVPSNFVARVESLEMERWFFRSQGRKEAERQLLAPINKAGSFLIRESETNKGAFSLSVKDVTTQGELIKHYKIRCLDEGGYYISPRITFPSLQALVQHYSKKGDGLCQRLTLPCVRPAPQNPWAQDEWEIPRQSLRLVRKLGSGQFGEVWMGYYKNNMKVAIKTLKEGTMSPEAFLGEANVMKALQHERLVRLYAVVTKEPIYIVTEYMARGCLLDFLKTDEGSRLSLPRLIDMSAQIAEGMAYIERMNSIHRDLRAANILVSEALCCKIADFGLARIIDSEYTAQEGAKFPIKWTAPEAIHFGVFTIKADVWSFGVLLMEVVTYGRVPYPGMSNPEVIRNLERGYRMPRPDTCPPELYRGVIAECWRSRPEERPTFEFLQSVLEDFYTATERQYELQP

[11] = system: Rattus norvegicus; experiment: Antiinflammatory activity in Lewis rat collagen-induced arthritis model assessed as reduction in ankle cartilage damage at 0.125 to 2 mg/kg, po administered bid for 16 days; assay type: functional, organism-based
[12] = system: Rattus norvegicus; experiment: Antiinflammatory activity in po dosed Lewis rat collagen-induced arthritis model assessed as reduction in ankle thickness administered bid for 16 days; assay type: functional, organism-based
[13] = system: Salmonella typhimurium; experiment: Genotoxicity in Salmonella typhimurium TA97a after 48 to 72 hrs in presence of liver S9 fraction by Ames test; assay type: toxicity; details: salmonella enterica subsp. enterica serovar typhimurium
[14] = Clearance in human liver microsomes at 1 uM incubated up to 60 mins by LC-MS/MS method; assay type: ADME, microsome
[15] = molecular target: T2, TEC (Homo sapiens, UniProt P42680); experiment: Inhibition of recombinant human cytoplasmic full length His-tagged TEC expressed in baculovirus at 1 uM by Z'-LYTE assay
T2 sequence (P42680 whole entry): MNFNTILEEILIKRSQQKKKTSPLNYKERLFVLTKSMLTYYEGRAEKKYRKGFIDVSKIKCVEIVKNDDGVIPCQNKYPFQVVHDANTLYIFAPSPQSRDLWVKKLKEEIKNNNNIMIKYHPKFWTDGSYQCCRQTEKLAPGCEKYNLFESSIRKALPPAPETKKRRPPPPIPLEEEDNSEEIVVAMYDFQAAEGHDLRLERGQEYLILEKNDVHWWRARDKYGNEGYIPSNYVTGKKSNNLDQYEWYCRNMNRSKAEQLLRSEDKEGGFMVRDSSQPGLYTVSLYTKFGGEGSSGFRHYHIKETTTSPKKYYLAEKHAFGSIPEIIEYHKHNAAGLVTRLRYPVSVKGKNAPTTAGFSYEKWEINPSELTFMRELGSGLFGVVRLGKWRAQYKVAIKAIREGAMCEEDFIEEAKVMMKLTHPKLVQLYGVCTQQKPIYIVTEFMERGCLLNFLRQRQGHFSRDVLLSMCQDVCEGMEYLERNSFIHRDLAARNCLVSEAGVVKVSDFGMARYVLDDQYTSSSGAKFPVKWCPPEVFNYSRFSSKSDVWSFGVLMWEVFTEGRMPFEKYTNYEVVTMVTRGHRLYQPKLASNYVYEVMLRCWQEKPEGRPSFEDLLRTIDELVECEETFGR

[16] = system: Rattus norvegicus; experiment: Antiinflammatory activity in Lewis rat collagen-induced arthritis model assessed as reduction in ankle diameter AUC at 0.25 mg/kg, po administered qd for 16 days relative to control; assay type: functional; details: 384 h
[17] = molecular target: EGFR (Homo sapiens, UniProt P00533); experiment: Inhibition of recombinant human cytoplasmic GST-tagged EGFR expressed in baculovirus at 1 uM by Z'-LYTE assay
Chain of EGFR (P00533 whole entry): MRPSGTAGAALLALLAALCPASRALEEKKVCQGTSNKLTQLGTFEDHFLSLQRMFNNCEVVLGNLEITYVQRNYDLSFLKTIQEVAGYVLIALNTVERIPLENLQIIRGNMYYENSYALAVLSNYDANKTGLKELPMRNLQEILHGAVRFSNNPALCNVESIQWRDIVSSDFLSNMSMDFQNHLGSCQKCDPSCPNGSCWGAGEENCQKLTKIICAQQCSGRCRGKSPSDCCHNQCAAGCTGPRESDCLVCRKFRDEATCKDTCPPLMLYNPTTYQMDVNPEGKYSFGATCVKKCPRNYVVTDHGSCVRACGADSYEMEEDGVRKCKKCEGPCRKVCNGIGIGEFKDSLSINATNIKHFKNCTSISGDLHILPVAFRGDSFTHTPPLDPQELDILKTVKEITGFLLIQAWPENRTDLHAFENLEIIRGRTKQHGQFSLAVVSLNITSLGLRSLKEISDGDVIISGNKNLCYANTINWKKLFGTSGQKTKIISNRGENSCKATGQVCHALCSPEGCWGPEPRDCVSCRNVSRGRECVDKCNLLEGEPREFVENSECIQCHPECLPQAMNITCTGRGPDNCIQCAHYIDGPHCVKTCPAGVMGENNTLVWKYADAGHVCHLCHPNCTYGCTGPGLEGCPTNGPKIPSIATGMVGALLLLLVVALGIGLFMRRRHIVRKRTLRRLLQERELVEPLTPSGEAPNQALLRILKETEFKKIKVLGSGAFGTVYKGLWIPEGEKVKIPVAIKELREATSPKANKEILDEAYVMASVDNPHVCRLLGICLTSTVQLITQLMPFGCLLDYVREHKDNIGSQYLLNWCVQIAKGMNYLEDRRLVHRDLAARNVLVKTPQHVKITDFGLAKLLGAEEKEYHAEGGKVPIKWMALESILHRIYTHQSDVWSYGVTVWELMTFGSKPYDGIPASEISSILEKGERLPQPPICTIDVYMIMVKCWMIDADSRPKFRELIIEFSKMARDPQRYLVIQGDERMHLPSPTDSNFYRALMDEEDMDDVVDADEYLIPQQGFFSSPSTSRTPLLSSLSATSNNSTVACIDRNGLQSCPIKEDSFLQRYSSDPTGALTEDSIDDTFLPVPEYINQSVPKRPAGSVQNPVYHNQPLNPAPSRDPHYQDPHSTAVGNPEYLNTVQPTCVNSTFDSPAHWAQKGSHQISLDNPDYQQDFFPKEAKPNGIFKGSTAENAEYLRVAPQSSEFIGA

[18] = system: Rattus norvegicus; experiment: Antiinflammatory activity in Lewis rat collagen-induced arthritis model assessed as reduction in ankle pannus at 0.125 to 2 mg/kg, po administered bid for 16 days; assay type: functional, organism-based
[19] = system: Salmonella typhimurium; experiment: Genotoxicity in Salmonella typhimurium TA98 after 48 to 72 hrs in presence of liver S9 fraction by Ames test; assay type: toxicity; details: salmonella enterica subsp. enterica serovar typhimurium
[20] = molecular target: Nav1.5 (Homo sapiens, UniProt Q14524); experiment: Inhibition of human Nav1.5 expressed in CHO cells at 10 uM incubated for 3 to 5 mins by QPatch clamp assay; assay type: cell-based; details: CHO cells expressing human Nav1.5
Chain of Nav1.5 (Q14524 whole entry): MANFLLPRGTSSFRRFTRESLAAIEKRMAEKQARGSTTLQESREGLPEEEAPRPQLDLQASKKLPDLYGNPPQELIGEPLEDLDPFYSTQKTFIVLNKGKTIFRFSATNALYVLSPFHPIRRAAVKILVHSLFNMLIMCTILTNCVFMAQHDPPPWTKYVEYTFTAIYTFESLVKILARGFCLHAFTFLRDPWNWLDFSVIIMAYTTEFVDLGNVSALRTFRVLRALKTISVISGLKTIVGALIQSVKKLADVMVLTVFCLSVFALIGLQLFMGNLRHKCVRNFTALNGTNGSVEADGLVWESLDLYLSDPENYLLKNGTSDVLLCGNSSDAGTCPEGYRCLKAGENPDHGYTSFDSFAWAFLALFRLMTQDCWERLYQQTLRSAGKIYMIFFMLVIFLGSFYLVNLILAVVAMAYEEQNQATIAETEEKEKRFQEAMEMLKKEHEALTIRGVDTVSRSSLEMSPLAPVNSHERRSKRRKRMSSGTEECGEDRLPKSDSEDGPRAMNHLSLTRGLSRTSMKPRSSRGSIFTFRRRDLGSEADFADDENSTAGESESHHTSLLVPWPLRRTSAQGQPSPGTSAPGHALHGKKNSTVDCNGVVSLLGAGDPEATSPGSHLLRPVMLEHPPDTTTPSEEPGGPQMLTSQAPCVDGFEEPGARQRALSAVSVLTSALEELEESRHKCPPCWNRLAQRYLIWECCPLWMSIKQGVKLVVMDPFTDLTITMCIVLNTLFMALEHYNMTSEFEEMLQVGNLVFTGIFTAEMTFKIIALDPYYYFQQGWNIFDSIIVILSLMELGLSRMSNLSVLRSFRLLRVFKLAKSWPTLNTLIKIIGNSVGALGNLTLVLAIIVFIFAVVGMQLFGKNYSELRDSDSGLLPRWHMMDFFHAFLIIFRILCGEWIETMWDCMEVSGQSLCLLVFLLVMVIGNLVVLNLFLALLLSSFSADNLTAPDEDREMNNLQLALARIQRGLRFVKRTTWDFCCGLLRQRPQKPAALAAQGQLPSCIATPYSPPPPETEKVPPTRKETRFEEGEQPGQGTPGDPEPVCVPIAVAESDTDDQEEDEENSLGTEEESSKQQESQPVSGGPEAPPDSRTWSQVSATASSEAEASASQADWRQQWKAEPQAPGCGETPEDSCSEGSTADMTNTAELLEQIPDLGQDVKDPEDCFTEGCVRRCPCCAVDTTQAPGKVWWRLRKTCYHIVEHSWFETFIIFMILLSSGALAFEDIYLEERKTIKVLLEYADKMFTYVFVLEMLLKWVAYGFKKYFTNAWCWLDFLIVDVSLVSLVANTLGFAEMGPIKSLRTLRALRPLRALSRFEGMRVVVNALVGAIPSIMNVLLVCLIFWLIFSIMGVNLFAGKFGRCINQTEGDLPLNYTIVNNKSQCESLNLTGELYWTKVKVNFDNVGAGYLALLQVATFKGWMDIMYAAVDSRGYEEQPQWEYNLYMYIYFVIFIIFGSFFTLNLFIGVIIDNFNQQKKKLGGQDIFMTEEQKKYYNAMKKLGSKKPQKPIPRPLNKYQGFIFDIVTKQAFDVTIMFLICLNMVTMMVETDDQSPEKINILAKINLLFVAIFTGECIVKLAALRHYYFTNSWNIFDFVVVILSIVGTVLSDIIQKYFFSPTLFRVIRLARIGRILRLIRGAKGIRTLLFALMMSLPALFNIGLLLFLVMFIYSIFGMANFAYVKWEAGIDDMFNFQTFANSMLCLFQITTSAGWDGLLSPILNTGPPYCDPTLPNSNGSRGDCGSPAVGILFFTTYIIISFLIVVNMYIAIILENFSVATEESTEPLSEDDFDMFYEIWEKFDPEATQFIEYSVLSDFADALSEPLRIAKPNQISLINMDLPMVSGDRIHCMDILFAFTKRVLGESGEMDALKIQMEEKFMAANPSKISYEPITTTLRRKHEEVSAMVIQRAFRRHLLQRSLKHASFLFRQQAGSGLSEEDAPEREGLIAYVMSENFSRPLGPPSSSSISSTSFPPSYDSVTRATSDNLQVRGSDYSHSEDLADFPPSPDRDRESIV

Chain of Cytochrome P450 2D6 (P10635 whole entry): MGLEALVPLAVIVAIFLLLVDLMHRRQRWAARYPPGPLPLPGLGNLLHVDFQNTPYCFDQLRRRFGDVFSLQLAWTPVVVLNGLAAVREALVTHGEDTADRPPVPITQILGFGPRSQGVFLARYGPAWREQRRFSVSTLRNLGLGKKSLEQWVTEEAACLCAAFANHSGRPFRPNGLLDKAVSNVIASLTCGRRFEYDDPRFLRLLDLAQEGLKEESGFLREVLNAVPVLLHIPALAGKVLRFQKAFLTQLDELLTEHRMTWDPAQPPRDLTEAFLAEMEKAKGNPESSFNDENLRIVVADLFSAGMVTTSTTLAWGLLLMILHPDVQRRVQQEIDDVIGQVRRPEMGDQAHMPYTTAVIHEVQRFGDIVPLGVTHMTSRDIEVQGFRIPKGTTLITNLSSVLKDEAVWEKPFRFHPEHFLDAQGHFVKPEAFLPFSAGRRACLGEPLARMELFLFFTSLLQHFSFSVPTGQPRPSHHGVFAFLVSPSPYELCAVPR

IC50 [1]: > 5 µM
bioavailability [3]: 65.1%
inhibition at 1 µM [7]: 5%
inhibition at 1 µM [10]: 6%
CLhep predicted at 1 µM [14]: 9.4 mL/min/kg
inhibition at 1 µM [15]: 23%
inhibition at 1 µM [17]: -7%
SMILES: C[C@H]1CN(C2COC2)CCN1c1ccc(Nc2cc(-c3ccnc(N4CCn5c(cc6c5CC(C)(C)C6)C4=O)c3CO)cn(C)c2=O)nc1 [FENEBRUTINIB]
Activity [2]: Active
inhibition in vivo at 0.5 mg/kg [4]: 79%
Activity [5]: Non-Toxic
Activity [6]: Non-Toxic
Activity [8]: Non-Toxic
Activity [9]: Active
Activity [11]: Active
Activity [12]: Dose-dependent effect
Activity [13]: Non-Toxic
inhibition in vivo at 0.25 mg/kg [16]: 26%
Activity [18]: Active
Activity [19]: Non-Toxic
inhibition at 10 µM [20]: 1.9%

Reference: ChEMBL document CHEMBL4020831, “Discovery of GDC-0853: A Potent, Selective, and Noncovalent Bruton's Tyrosine Kinase Inhibitor in Early Clinical Development” (J Med Chem, 2018)
